According to patent publication US20100324081A1, “PREVENTIVE, INHIBITOR OR REMEDY FOR CEREBRAL ANEURYSM COMPRISING IBUDILAST AS AN ACTIVE INGREDIENT” (Kyorin Pharmaceutical Co., Ltd., priority 2007, published 2010):

Assays:
[1] = test system: female rat animal model used for generating cerebral aneurysm; settings: hormone substitution therapy, estrogen-deficient female rat model; Non-Patent Document 7; cited from earlier work
[2] = test system: rat cerebral aneurysm model; test: Cerebral aneurysm formation-inhibitory effect on rat cerebral aneurysm model (vascular corrosion cast staging); assay type: in vivo, Sprague-Dawley rats; settings: for Analysis χ^2 Test (P vs control group) / Number of cases at Stage 1 (irregularity of vascular endothelia at the branched portion) / Number of cases at Stage 2 (slight outward projection) / Number of cases at Stage 0 (no irregularity, no outward projection): 12 weeks, 15 cases
Description: Cerebral aneurysm models of rats were prepared, Ibudilast was administered to these animals at a dose of […] through the oral route.
In this experiment, 7-week-old Sprague-Dawley rats were used and the posterior nenal arteries at both sides of test animal were ligated and the right side common carotid artery of each test animal was likewise ligated (the preparation of a cerebral aneurysm model of rat: see Non-Patent Document 7 specified above). After one week from the foregoing treatments, the administration of a 1% physiological saline was initiated. Then, the ovaries of each test animal on the both sides were excised after 4 weeks from the initial operation. Starting from the day subsequent to the excision, a 5% gum Arabic solution (control group) and Ibudilast were orally administered to these test animals through the use of an oral probe (sound).
The numbers of cases examined herein were as follows:
Control Group (the animal group administered at a dose of 0 mg/kg/day): 20 cases;
Ibudilast (30 mg/kg/day)-Administered Group: 15 cases; and
Ibudilast (60 mg/kg/day)-Administered Group: 15 cases.
After 12 weeks from the initiation of the administration, the rats were sacrificed, and a resin (curable resin: Baston No. 17 Plastic (manufactured and sold by Polyscience Inc.)) was injected into the blood vessels of the animals to thus form a vascular corrosion cast. Then, each branched portion of the left anterior cerebral artery-olfactory artery present in the vascular corrosion cast was examined using an electron microscope. The evaluation of the results obtained was carried out under the blind conditions to thus estimate the progress of the formation of any cerebral aneurysm according to the following criteria:
Evaluation Criteria of Vascular Corrosion Cast:
Stage 0: There was not observed any […] irregularity and any outward projection;
Stage 1: There was observed irregularity of vascular endothelia at the branched portion;
Stage 2: There was observed a slight and outward projection; and
Stage 3: There was observed a substantial and outward projection or a projection which reaches even to the apex of the branched portion.

SMILES | Effect on cerebral aneurysm formation (in words) [1] | Analysis χ^2 Test (P vs control group) ([2]; Ibudilast 30 mg/kg/day oral) | Number of cases at Stage 1 (irregularity of vascular endothelia at the branched portion) ([2]; Ibudilast 30 mg/kg/day oral) | Number of cases at Stage 2 (slight outward projection) ([2]; Ibudilast 30 mg/kg/day oral) | Number of cases at Stage 0 (no irregularity, no outward projection) ([2]; Ibudilast 30 mg/kg/day oral, vascular corrosion cast, left anterior cerebral artery-olfactory artery branch) | Analysis χ^2 Test (P vs control group) ([2]; Ibudilast 60 mg/kg/day oral) | Number of cases at Stage 0 (no irregularity, no outward projection) ([2]; Ibudilast 60 mg/kg/day oral) | Number of cases at Stage 1 (irregularity of vascular endothelia at the branched portion) ([2]; Ibudilast 60 mg/kg/day oral) | Number of cases at Stage 2 (slight outward projection) ([2]; Ibudilast 60 mg/kg/day oral) | Effect on cerebral aneurysm formation (overall, in words) ([2]; cerebral aneurysm model of rat, oral administration)
C[C@]12CC[C@@H]3c4ccc(O)cc4CC[C@H]3[C@@H]1CC[C@@H]2O [17β-estradiol] | the formation of any cerebral aneurysm is suppressed |  |  |  |  |  |  |  |  | 
CC(C)C(=O)c1c(C(C)C)nn2ccccc12 [Ibudilast] |  | P < 0.005 | 7 | 3 | 4 | P < 0.005 | 4 | 6 | 5 | excellent effect of cerebral aneurysm formation-preventive or suppression
